Experiment [1] has as its target T1, LmPTR1 (Leishmania major, UniProt Q01782).
T1 construct: His6 (N); made in house; host or cells: E. coli BL21 (DE3), vector pET 15b::LmPTR1His (strain from the group of M. Paola Costi, Modena)
T1 sequence (Q01782 1-288): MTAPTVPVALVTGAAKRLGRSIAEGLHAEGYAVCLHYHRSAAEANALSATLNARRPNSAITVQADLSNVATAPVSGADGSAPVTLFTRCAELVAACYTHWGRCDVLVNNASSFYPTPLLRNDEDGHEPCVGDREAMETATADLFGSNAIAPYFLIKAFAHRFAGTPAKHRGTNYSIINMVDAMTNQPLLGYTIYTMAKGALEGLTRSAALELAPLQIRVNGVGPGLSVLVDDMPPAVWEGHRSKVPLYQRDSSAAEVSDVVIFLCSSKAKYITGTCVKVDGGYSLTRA
On the set-up: method as in PMID 29211037.

Another experiment has as its target T2, LmDHFR (Leishmania major, UniProt P07382).
T2 construct: The DNA fragment encoding LmDHFR was amplified by Phusion DNA polymerase; His6 (N); made in house; host or cells: E. coli BL21(DE3), vector pET 11D::LmDHFRHis
T2 sequence (P07382 26-229 limits assumed): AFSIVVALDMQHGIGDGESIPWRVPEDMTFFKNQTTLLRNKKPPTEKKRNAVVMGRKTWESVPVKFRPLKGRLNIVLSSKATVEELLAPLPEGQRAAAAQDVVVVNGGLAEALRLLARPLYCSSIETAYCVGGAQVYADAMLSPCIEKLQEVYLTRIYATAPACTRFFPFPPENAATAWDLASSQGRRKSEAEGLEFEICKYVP
The experiment is described as follows: Spectrophotometric enzyme inhibition assay, recombinant LmDHFR. Format: biochemical. How it is done:
(§1) Based on the in vitro assays against TbPTR1 and LmPTR1 performed in the previous works of our group, as well as the in silico results obtained from the current study, a total of 47 natural products were tested against the target enzymes. […] The concentration-effect curves for the IC50 and EC50 values that were obtained in the present study are depicted in Supplementary Materials Figures S21–S42.
The TbDHFR concentration was measured to be 0.04 mg/mL and a specific activity of 38.1 U/mg was calculated. The concentration of LmDHFR was 0.05 mg/mL with a specific activity of 56.2 U/mg. All measurements were carried out using the saturating concentrations for dihydrofolate (50 μM) and NADPH (150 μM) in Buffer C (50 mM Tris/HCl (pH 7.6), 250 mM NaCl, 10 mM BME). The saturating conditions for TbDHFR and LmDHFR were determined using the diagrams depicted in Figures S17 and S19 in the Supplementary Materials.
(§2) The inhibitory effect of the selected natural products was investigated by testing the DMSO solution of each compound at a constant concentration of 100 μM for TbPTR1 and 50 μM for LmPTR1, TbDHFR, and LmDHFR, as well as hDHFR. The concentrations of the cofactor and substrates were set at the previously determined saturating conditions (Section 4.2.5). Each test compound was incubated for 20 min with the respective enzyme and NADPH to ensure a sufficient interaction time before the reaction was induced by the addition of the substrate. The enzymatic activity was determined in duplicates and correlated with a reference that contained just DMSO, instead of an inhibitor. The enzymatic activity of the reference was normalized to 100%.
(§3) The half-maximal inhibitory concentration (IC50) of the natural products was determined in triplicate, using at least five different inhibitor concentrations against a reference containing no inhibitor. The enzymatic activity was documented and analyzed and the IC50 value was determined by nonlinear regression using GraphPad Prism 9 (GraphPad Software Inc., La Jolla, CA, USA).

For another experiment, the target named is T3, hDHFR (Homo sapiens, UniProt P00374).
T3 construct: His; host or cells: E. coli BL21 (DE3), vector pET 15b::hDHFRHis
T3 sequence (P00374 1-187): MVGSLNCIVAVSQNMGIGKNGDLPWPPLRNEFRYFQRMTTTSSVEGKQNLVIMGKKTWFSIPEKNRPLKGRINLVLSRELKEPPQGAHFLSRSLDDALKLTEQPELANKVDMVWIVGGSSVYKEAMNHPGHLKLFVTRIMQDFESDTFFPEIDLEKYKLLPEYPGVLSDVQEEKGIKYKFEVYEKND
Kind of experiment: Spectrophotometric enzyme inhibition assay, recombinant hDHFR (selectivity). Format: biochemical. The conditions noted are these: for inhibition at 50 µM: set compound concentration of 50 μM, read-out: relative inhibition of hDHFR; for EC50: read-out: EC50 hDHFR (footnote a). The procedure: For 15 compounds, there was enough substance available to be tested in selectivity studies against hDHFR.
The used hDHFR concentration was 0.64 mg/mL, with a specific activity of 0.62 U/mg. All measurements were carried out using the saturating concentrations for dihydrofolate (100 μM) and NADPH (50 μM) in Buffer C (50 mM Tris/HCl (pH 7.6), 250 mM NaCl, 10 mM BME). The saturating conditions for hDHFR were determined using the diagrams depicted in Figure S20 in the Supplementary Materials.
as §2, §3

The target of experiment [2] is T4, TbPTR1 (Trypanosoma brucei brucei, UniProt O76290).
T4 construct: His6 (N); made in house; host or cells: E. coli BL21 (DE3), vector pET 15b::TbPTR1His (strain from the group of M. Paola Costi, Modena)
T4 sequence (O76290 1-268): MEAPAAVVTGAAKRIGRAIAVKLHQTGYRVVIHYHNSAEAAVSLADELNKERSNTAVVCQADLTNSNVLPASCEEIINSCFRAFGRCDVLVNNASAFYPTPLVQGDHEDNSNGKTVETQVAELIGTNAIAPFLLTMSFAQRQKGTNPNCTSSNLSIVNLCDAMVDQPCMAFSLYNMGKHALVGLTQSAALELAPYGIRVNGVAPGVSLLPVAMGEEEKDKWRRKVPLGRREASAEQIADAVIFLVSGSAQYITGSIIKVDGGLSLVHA

In experiment [3] the target is T4, TbPTR1. Kind of experiment: Dilution assay for reversible/irreversible inhibition of TbPTR1. It counts as biochemical. As to conditions: inhibitor concentration near IC50. The source says: The catalytic center of TbPTR1 contains a cysteine residue (TbCys168) in close proximity to the substrate/inhibitor binding site. In our previous publication, we mentioned the possibility that Sesquiterpene Lactones 1 and 2 might interact as Michael acceptors with TbCys168 by covalent bond formation with its thiol group. Therefore, we have now subjected a selection of natural product inhibitors containing Michael acceptors (1, 2, 5, 17) to initial testing for irreversible inhibition, according to the dilution method described by Bisswanger (see Section 4.2.9).
In this method, the enzyme activity of the respective enzyme-inhibitor mixture is measured before and after a defined dilution (in this study, 1:2). In the absence of an inhibitor, dilution decreases the enzyme activity proportionally to the dilution factor. […] A reversible inhibitor, on the other hand, will dissociate upon dilution, resulting in a weaker decrease in activity than what corresponds to the dilution effect. In the presence of Inhibitors 1 and 2, the decrease in TbPTR1 activity upon the 1:2 dilution was almost proportional to the dilution factor, i.e., only 9.5% and 6.8% activity, respectively, were recovered compared to the reference. This would indeed support an irreversible mechanism of inhibition. […] However, further investigations on these compounds’ mechanisms of inhibition are under way.
To assign an either reversible or irreversible inhibition mechanism to selected compounds, the enzymatic activity of an enzyme-inhibitor mixture was determined before and after a defined dilution, using the reaction conditions described in Section 4.2.5 [16].
Two equivalent solutions with the respective enzyme and inhibitor combination were prepared, one of them being diluted with buffer in a 1:2 ratio shortly before the reaction was started by adding the substrate. The respective inhibitor concentration was set near the IC50 value. The substrate and cofactor concentrations were kept constant in both reaction mixtures. All measurements were carried out in duplicates against a reference containing DMSO instead of the inhibitor. […] If a reversible inhibitor was present, a higher degree of activity recovery (>>10%) could be observed than what corresponds to the dilution factor due to the partial dissociation of the inhibitor from the enzyme upon dilution. The percentual changes in the enzymatic activity of the undiluted and diluted test solution were compared and evaluated to decide the mechanism of inhibition.

In a further experiment the target is T5, TbDHFR (Trypanosoma brucei brucei, UniProt Q27783).
T5 construct: pET 11D::TbDHFRHis vector design for the recombinant overexpression of TbDHFR in E. coli; His; made in house; host or cells: E. coli BL21(DE3), vector pET 11D::TbDHFRHis
T5 sequence (Q27783 28-238 limits assumed): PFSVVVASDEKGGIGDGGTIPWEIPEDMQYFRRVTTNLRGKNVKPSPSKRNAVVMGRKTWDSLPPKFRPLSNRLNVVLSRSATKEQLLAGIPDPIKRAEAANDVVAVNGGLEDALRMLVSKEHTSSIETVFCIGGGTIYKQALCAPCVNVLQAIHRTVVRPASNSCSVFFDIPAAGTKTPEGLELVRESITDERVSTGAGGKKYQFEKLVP
The experiment is described as follows: Spectrophotometric enzyme inhibition assay, recombinant TbDHFR. The conditions noted are these: read-out: IC50 TbDHFR. Format: biochemical. How it is done: Based on the in vitro assays against TbPTR1 and LmPTR1 performed in the previous works of our group, as well as the in silico results obtained from the current study, a total of 47 natural products were tested against the target enzymes.
The saturating conditions for TbDHFR and LmDHFR were determined using the diagrams depicted in Figures S17 and S19 in the Supplementary Materials.
as §2, §3

In experiment [4] the target is T1, LmPTR1. Kind of experiment: Spectrophotometric enzyme inhibition assay, recombinant LmPTR1. It counts as biochemical. How it is done: as §1
(§4) The used TbPTR1 concentration was 3.23 mg/mL, with a specific activity of 0.03 U/mg. The measurements were carried out using the enzyme’s individual saturating concentrations for folic acid (8 μM) and NADPH (150 μM) in Buffer A (50 mM Tris/HCl (pH 7.6), 250 mM NaCl). For LmPTR1, the protein concentration was 5.02 mg/mL and the specific activity was calculated to be 0.29 U/mg. Buffer B (50 mM NaH2PO4 (pH 6.0), 100 mM NaCl) was used for all LmPTR1 measurements and the saturating concentrations amounted to 50 μM of folic acid and 200 μM of NADPH. The saturating conditions of the PTR1 enzymes were determined using the diagrams depicted in Figures S16 and S18 in the Supplementary Materials.
as §2, §3

Experiment [5] deals with T4, TbPTR1. The experiment is described as follows: Spectrophotometric enzyme inhibition assay, recombinant TbPTR1. It counts as biochemical. How it is done:
as §1, §4, §2, §3

The next experiment has as its system T. brucei. As to conditions: read-out: EC50 in vitro against T. brucei; cited from earlier work.
The next experiment has as its system L. major. The conditions noted are these: read-out: EC50 against L. major; cited from earlier work.
Setting [6] is: read-out: IC50 LmPTR1; from previous study; cited from earlier work.

Results on seven compounds are retold here after publication PMC10673058, “In Silico and In Vitro Search for Dual Inhibitors of the Trypanosoma brucei and Leishmania major Pteridine Reductase 1 and Dihydrofolate Reductase” (Molecules, 2023).

Read-outs that look alike come from different tables or passages of the source.

As to `O=C(OC1Cc2c(O)cc(O)cc2OC1c1ccc(O)c(O)c1)c1cc(O)c(O)c(O)c1` (single isomer, unassigned; (-)) [Compound 3, (−)-catchin-3-gallate], the IC50 at LmPTR1 [1] (setting [6]) was 75.3 µM; at LmDHFR, 0.6 µM; at hDHFR, 4.2 µM; at TbPTR1 [2] (read-out: IC50 TbPTR1; from previous study; cited from earlier work), above 100 µM. Besides, the inhibition at 50 µM at hDHFR was above 50%.
As for `C=C1C(=O)O[C@@H]2/C=C(\CO)CC/C=C(\C)C[C@H](OC(=O)C(=C)[C@H](O)CO)[C@@H]12` [Compound 1, cnicin], the IC50 on hDHFR, at TbDHFR and at LmPTR1 [4] (read-out: IC50 LmPTR1) was above 50 µM throughout. Moreover, the “inhibition of hDHFR” value at hDHFR is on record as “no relevant inhibition”. In addition, the “TbPTR1 activity recovered upon 1:2 dilution compared to the reference” value on TbPTR1 [3] came out at 9.5%. The EC50 on TbPTR1 [2] (EC50 value; from previous study; read-out: EC50 TbPTR1 (footnote a); cited from earlier work) is 12.2 µM. Moreover, at LmPTR1 [4], the “inhibitory effect against LmPTR1” value is on record as “No relevant inhibitory effect”.
In the case of `C=C(CO)C(=O)O[C@H]1CC(=C)[C@@H]2C[C@H](O)C(=C)[C@@H]2[C@H]2OC(=O)C(=C)[C@@H]21` [Compound 2, cynaropicrin], on hDHFR, the IC50 was above 50 µM and the “inhibition of hDHFR” value is given as “no relevant inhibition”. Besides, on TbPTR1 [3], the “TbPTR1 activity recovered upon 1:2 dilution compared to the reference” value is on record as 6.8%. For the same compound, the IC50 on TbDHFR (recombinant enzyme, >50 = <50% inhibition at 50 μM) came out at 7.12 µM. For the same compound, on LmPTR1 [4], the IC50 was above 50 µM and the “inhibitory effect against LmPTR1” value was “No relevant inhibitory effect”.
Regarding `COc1cc([C@@H]2Oc3cc(-c4oc5cc(O)cc(O)c5c(=O)c4O)ccc3O[C@H]2CO)ccc1O` [Compound 4, 2,3-dehydrosilybin B], the IC50 is above 100 µM at TbPTR1 [5], 42.9 µM on LmPTR1 [1] (setting [6]) and 2.6 µM on LmDHFR. The EC50 on hDHFR came out at 3.8 µM. Besides, the inhibition at 50 µM at hDHFR was above 50%.
In the case of `COc1cc(/C=C/C(=O)CC(=O)/C=C/c2ccc(O)c(OC)c2)ccc1O` [Compound 5, curcumin], the results for the IC50 on TbPTR1 [5] (read-out: IC50 TbPTR1), at hDHFR and on LmPTR1 [4] (read-out: IC50 LmPTR1) were 18.5 µM, 33.9 µM and above 50 µM, respectively. Further, the inhibition at 50 µM on hDHFR is above 50%. Further, the “TbPTR1 activity recovered upon 1:2 dilution compared to the reference” value on TbPTR1 [3] was found to be 16.6%. Further, the concentration for a half-maximal effect (EC50) was 2.5 µM in the experiment with T. brucei and 33 µM in the experiment on L. major.
`CC(C)=CCc1c(O)cc2oc3cc(O)c(O)c(CCC(C)(C)O)c3c(=O)c2c1O` [Compound 6, garcinone c]: the IC50 is 3 µM on LmDHFR (read-out: IC50 LmDHFR), 1.7 µM at hDHFR and above 100 µM on TbPTR1 [2] (from previous study; read-out: IC50 TbPTR1; cited from earlier work). Besides, the EC50 at hDHFR is 1.7 µM. The inhibition at 50 µM on hDHFR is above 50%.
For `O=C(/C=C/c1ccc(O[C@@H]2O[C@H](CO)[C@@H](O)[C@H](O)[C@H]2O)cc1)c1ccc(O)cc1O` [Compound 7, isoliquiritin], the IC50 at TbPTR1 [5] was above 100 µM; on LmPTR1 [1] (from previous study; read-out: IC50 LmPTR1; cited from earlier work) it was 84.5 µM; on LmDHFR it was 46.2 µM; at hDHFR, above 50 µM.
